pEC50: −log10 of the molar value. Like-named read-outs stand apart in the source and are kept apart here. Residues, ends and D or L forms follow the SMILES beside them. *: point of attachment. X1 = O=C(COc1ccc(-c2ccccn2)cc1)NCCCCCCCCN*
Tests used:
Type in all cases: cell-based
Jurkat cells [1] = tested on: Jurkat cells
Protocol: The cytotoxicity of 4 against Jurkat cells was evaluated by conducting MTT assays [MTT = 3-(4,5-dimethyl-2-thiazolyl)-2,5-diphenyl-2H-tetrazolium bromide] as a function of time and by microscopic observations to determine the appropriate conditions for mechanistic studies of paraptosis (Figure 1).
It was reported that an inhibitor of a mitochondrial Na^+/Ca^2+ exchanger (mNCX), which functions to export Ca^2+ from the mitochondrial matrix to the cytosol in exchange with cytosolic Na^+, affects the mitochondrial Ca^2+ concentration.[60]−[63],[88]−[90] We therefore examined the cytotoxicity of CGP37157 (Chart 2), a typical inhibitor of mNCX,[60],[61],[88]−[90] against Jurkat cells by means of an MTT assay. […] For microscopic observations, Jurkat cells were treated with CGP37157 (100 μM) for 0–24 h, and cell death was observed after treatment with CGP37157 for 12–24 h, by staining with propidium iodide (PI) (Figure 3B).
HeLa S3 and A549 cells (2.0 × 10^4 cells/well) were seeded on a 96-well plate (BD Falcon) in cell culture medium and incubated overnight at 37 °C under 5% CO2. Jurkat (2.0 × 10^4 cells/well), HeLa S3, and A549 cells were treated with 4 (0–25 μM) and CGP37157 (0–100 μM) for 1, 3, 6, 12, and 24 h at 37 °C under 5% CO2, after which a MTT solution in PBS (0.5%, 10 μL) was added to each well.
Statistical analyses of MTT assays were performed by using Graphpad Prism 9 software with the Student’s t test. Data are presented as means ± the standard deviation of three independent experiments, and a P of <0.05 was considered to indicate a statistically significant difference.

[2] = tested on: MFN1- and/or MFN2-KD Jurkat cells; assay: MTT assay of MFN1- and/or MFN2-KD Jurkat cells; settings: siRNA 10 nM, three independent experiments
Protocol: The roles of MFNs in the cell death induced by 4 and CGP37157 were examined by using small interfering RNA (siRNA) for MFN1 and MFN2 to knock down (KD) these proteins. […] The cytotoxicity of 4 and CGP37157 against MFN1- and/or MFN2-KD Jurkat cells was evaluated by MTT assays. […] The effect of a negative control siRNA (NCsiRNA) on the expression levels of MFNs and the cell viability of Jurkat cells was negligible, implying that MFNs are […] to the paraptosis induced by 4 and CGP37157. It should be noted that the treatment with siRNA at 5 nM for 72 h was toxic against Jurkat cells in the presence of 4 and CGP37157, although the efficiency of knockdown of these proteins by siRNA could be improved by increasing the incubation time, as shown in Figure S11.
To a solution of transfection reagent (INTERFERin, 5 μL) in OPTI-MEM (0.3 mL) in a 1.5 mL Eppendorf tube was added siRNA (10 μM, 1 or 2 μL) in H2O, and the resulting solution was allowed to stand for 15 min at room temperature. The resulting solution was then added to Jurkat cells (2.0 × 10^5 cells/mL, 1.5 mL) in 10% FBS/RPMI 1640 medium that had been seeded on a 12-well plate and incubated overnight at 37 °C under 5% CO2 (the final concentration of siRNA was 5 or 10 nM), and the resulting solution was incubated for 48 or 72 h at 37 °C under 5% CO2. The cells were collected by centrifugation (2000 rpm, 3 min, 4 °C), and the expression levels of MFNs were evaluated by Western blot analysis as described above. The cytotoxicity of 4 (3 or 5 μM), CGP37157 (50 or 100 μM), and celastrol (1 μM) against MFNs-KD Jurkat cells was evaluated by MTT assays as described above.

Jurkat cells [3] = assay: Cytosolic Ca2+ by flow cytometry with Rhod-4
Protocol: Other characteristic phenomena of paraptosis such as a mitochondrial Ca^2+ overload and loss of mitochondrial membrane potential (ΔΨm) induced by CGP37157 were also examined. Intracellular Ca^2+ concentrations were measured by flow cytometry using red-emitting Ca^2+ probes, Rhod-2 (a mitochondrial Ca^2+ probe) and Rhod-4 (a cytosolic Ca^2+ probe). Jurkat cells were stained with Rhod-2/AM or Rhod-4/AM (at 5 μM) and then treated with CGP37157 (100 μM) or 4 (5 μM) for a given period of incubation, immediately after which the emission intensity of Rhod-2 and Rhod-4 was measured by flow cytometry. […]
In a 1.5 mL Eppendorf tube, Jurkat cells (2.0 × 10^5 cells) were incubated in the presence of Rhod-2/AM (5 μM, 100 μL) or Rhod-4/AM (5 μM, 100 μL) in 10% FBS/RPMI 1640 medium for 30 min at 37 °C under 5% CO2 and then treated with 4 (5 μM, 0–30 min) or CGP37157 (100 μM, 0–6 h) in 10% FBS/RPMI 1640 medium (100 μL) for 30 min at 37 °C under 5% CO2. Immediately after the treatment, 10% FBS/RPMI 1640 medium (300 μL) was added to the cells and the samples were analyzed on a flow cytometer (FACSCalibur cytometer, Becton). The data were analyzed on FlowJo software (FlowJo, LCC).

| SMILES | pEC50 (Jurkat cells [1]; 12 h incubation, 10% FBS/RPMI 1640, 37 °C, 5% CO2, read-out: EC50 (MTT, Jurkat cells)) | pEC50 (Jurkat cells [1]; 24 h incubation, 10% FBS/RPMI 1640, 37 °C, 5% CO2, read-out: EC50 (MTT, Jurkat cells)) | Effect of knockdown of MFNs on cell death induced by the compound ([2]; CGP37157 50 or 100 µM, 12 h) | Emission of Rhod-4 (cytosolic Ca2+) (Jurkat cells [3]; CGP37157 100 μM, 1–6 h) | pEC50 (Jurkat cells [1]; 1 h) | pEC50 (Jurkat cells [1]; 3 h) | pEC50 (Jurkat cells [1]; 6 h) | pEC50 (Jurkat cells [1]; 12 h) | pEC50 (Jurkat cells [1]; 24 h) | Effect of knockdown of MFNs on cell death induced by the compound ([2]; 4 at 3 or 5 µM, 1 h) | Emission of Rhod-4 (cytosolic Ca2+) (Jurkat cells [3]; 4 at 5 μM, 10–30 min) |
| --- | --- | --- | --- | --- | --- | --- | --- | --- | --- | --- | --- |
| O=C1CSC(c2ccccc2Cl)c2cc(Cl)ccc2N1 (centres unmarked) [CGP37157] | 4.13 | 4.26 | weakly inhibited | small emission enhancement |  |  |  |  |  |  |  |
| NCCCC[C@H](NC(=O)[C@H](CCCCN)NC(=O)[C@@H](N)CCCCN)C(=O)NCC(=O)NCC(=O)NCCCCCCCCNC(=O)COc1ccc(-c2ccccn2)cc1 [compound 4] (H-KKKGG-X1) |  |  |  |  | 5.49 | 5.70 | 5.82 | 5.92 | 5.77 | weakly inhibited | small emission enhancement |

Source: PMC9022229, “Induction of Paraptosis by Cyclometalated Iridium Complex-Peptide Hybrids and CGP37157 via a Mitochondrial Ca^2+ Overload Triggered by Membrane Fusion between Mitochondria and the Endoplasmic Reticulum” (Biochemistry, 2022)
